The text below walks through data of patent US20220218679A1, “NOVEL COMPOUNDS AND PHARMACEUTICAL COMPOSITIONS THEREOF FOR THE TREATMENT OF INFLAMMATORY DISORDERS” (Galapagos NV, priority 2019, published 2022).

Data set [1] concerns CL097 triggered TNFα release in human whole blood. As to the kind of experiment: Ex vivo human TNFα release inhibition (human whole blood assay). Type of data set: cell-based. To be noted: Homo sapiens, CL097 2 μg/mL, 3 h 30 min at 37° C. The source says:
4.10.1. Ex Vivo Human IFNα and TNFα Release Inhibition (Human Whole Blood Assay)
The aim of the assay is to evaluate the activity of compounds of the invention on the activated TLR/IRAK-4 pathway in an ex vivo human whole blood setting. Toll-like receptors (TLRs) are pattern recognition receptors that recognize a wide variety of microbial molecules, called pathogen-associated molecular patterns (PAMPs). Human TLR7 and TLR8 recognize imidazoquinoline compounds (e.g., CL097—CAS n #1026249-18-2) and single stranded RNAs as their natural ligands. Activation of TLRs leads to the production of several cytokines (e.g., IFNα, TNFα, IL-8, IL-6) by the TLR agonist-treated cells, whereas IRAK4 leads to the production of IFNα. Cytokine release is used as readout in this assay and represents a measure for the level of inhibition of the TLR/IRAK-4 pathway by the tested compound. It should be noted that in the context of the complete organism, other sources for these cytokines exist that are not dependent on the TLR/IRAK-4 pathway, such as e.g., macrophages (upon activation of the Fcγ receptor (Yan et al., 2012)) or T cells (upon activation of the T cell receptor (Brehm et al., 2005)).
4.10.1.1. Experimental Design
Blood was collected from healthy volunteers into lithium heparin tubes by venipuncture, then gently inverted several times to prevent clotting and incubated for at least 15 min at 37° C. on a rocking mixer shaker. Then, 100 μL of blood was dispensed into polypropylene 96-well microplate and pre-incubated in duplicate with 0.3% DMSO or test compound at different concentrations (from 30 to 0.01 μM, 3-fold dilutions to get 0.3% DMSO at the final) for 15 min at 37° C. After this pre-incubation, blood was triggered with CL097 (2 μg/mL from 1 mg/mL solution in water; InvivoGen, tlrl-c97) for 3 h 30 min at 37° C. Microtubes were centrifuged at 5000×g for 10 min at 4° C. and approximately 40 μL of plasma were collected into a polystyrene 96-well plate. Plasma could be analyzed freshly, within 30 min after triggering, or frozen at −80° C. Finally, the quantification of TNFα and IFNα were performed in the plasma using AlphaLISA Kit for TNFα and IFNα according to the manufacturer's instructions and read on the Ensight (PerkinElmer).
For each blood sample, the TNFα concentrations of the samples were determined from the fit. Data were then expressed a percentage of inhibition PIN for each replicate using the formula:
With mean TNFα with CL097=mean TNFα concentration of replicate samples triggered with CL097; TNFαsample1=TNFα concentration of sample 1; mean TNFα with vehicle=mean TNFα concentration of replicate samples treated with vehicle.
Curve fitting for pIC50 determination were generated using mean PIN±sem. Graphs and pIC50 calculations were derived using Prism 5.03 software (GraphPad).

Data set [2] relates to Mouse Hepatocyte. The experiment in a line: Metabolic stability in hepatocytes (mouse). Type of data set: in vitro ADME. As to conditions: 1 μM test compound, cryopreserved mouse hepatocytes. On the procedure:
4.6. Metabolic Stability in Hepatocytes
The aim of this assay is to determine the metabolic stability of the compound in hepatocytes (cryopreserved) of different species. Low hepatocyte stability may result in the formation of unwanted metabolites, high clearance, and therefore is not desirable.
The decrease in parent was assessed by measuring the percentage remaining by LC-MS/MS analysis.
A 10 mM stock solution of test compound in DMSO was first diluted in DMSO to 3 mM, and then in modified Krebs-Henseleit buffer (Sigma, K3753) to 5 μM. This compound dilution was added to a suspension of pooled cryopreserved hepatocytes (BioreclamationIVT) at 37° C. under gentle shaking.
Final reaction conditions were: 1 μM of test compound, 0.03% DMSO, 0.5 million viable hepatocytes/mL, and 75 μL incubation volume.
Testosterone (1 μM) and 7-hydroxycoumarin (1 μM) were used, respectively as phase I and phase II metabolic reaction controls.
After 0, 10, 20, 45, 90, 120 and 180 min of incubation, the reaction was terminated with 225 μL of MeCN:MeOH (2:1) containing 100 ng/mL of diclofenac as analytical internal standard. Samples were mixed, centrifuged and the supernatant analyzed by LC-MS/MS.
The instrument responses (ratios of test compound and internal standard peak areas) were referenced to the zero time point samples (considered as 100%) in order to determine the percentage of compound remaining.
Plots of percentage compound remaining were used to determine the intrinsic clearance in the hepatocyte incubations using the following equations:
Scaled Clint [L/h/kg]=Clint[μL/min/10^6 cells]*#(10^6) cells/g liver*60*( 1/10^6) Scaled Clint unbound [L/h/kg]=Clint [L/h/kg]/Fu,inc where: fu,inc equals hepatocyte binding, derived from microsomal binding (fu,mic) by following equation: […]

Each structure is given as a SMILES string.

Broadly, the IC50 is the concentration that inhibits the measured activity by half. Regarding `CCOc1cn2nc(CCC(C)(C)O)cc2cc1NC(=O)c1cccn(C)c1=O` [Compound 18, N-[6-ethoxy-2-(3-hydroxy-3-methyl-butyl)pyrazolo[1,5-a]pyridin-5-yl]-1-methyl-2-oxo-pyridine-3-carboxamide], the IC50 in data set [1] is 500 to 1000 nM. Also, the “Mouse Hepatocyte stability (Perc. remaining at 90 min)” value in data set [2] was found to be 93 Perc.
Taken in the same sequence, the figures for `COc1cn2nc(CCC(C)(C)O)cc2cc1NC(=O)c1cccn(C2CCC2)c1=O` [Compound 21, 1-cyclobutyl-N-[2-(3-hydroxy-3-methyl-butyl)-6-methoxy-pyrazolo[1,5-a]pyridin-5-yl]-2-oxo-pyridine-3-carboxamide] were 1000 to 5000 nM and 49.45 Perc.
